Measured values as given in PubChem BioAssay (NCI).
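Method: 48-hour compound exposure of cells in 96-well plates, five concentrations, linear interpolation of endpoints. TGI: total growth inhibition.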

Legend:
Experiment in all cases: NCI tumour cell line growth inhibition, 48 h
786-0 renal = test system: 786-0 renal
A498 renal = test system: A498 renal
A549 NSCLC = test system: A549 NSCLC
ACHN renal = test system: ACHN renal
CAKI-1 renal = test system: CAKI-1 renal
CCRF-CEM leukemia = test system: CCRF-CEM leukemia
COLO 205 colon = test system: COLO 205 colon
DMS 114 small cell lung = test system: DMS 114 small cell lung
DMS 273 small cell lung = test system: DMS 273 small cell lung
EKVX NSCLC = test system: EKVX NSCLC
HCT-116 colon = test system: HCT-116 colon
HCT-15 colon = test system: HCT-15 colon
HOP-18 NSCLC = test system: HOP-18 NSCLC
HOP-92 NSCLC = test system: HOP-92 NSCLC
HT29 colon = test system: HT29 colon
IGROV1 ovarian = test system: IGROV1 ovarian
K-562 leukemia = test system: K-562 leukemia
KM12 colon = test system: KM12 colon
KM20L2 colon = test system: KM20L2 colon
LOX IMVI melanoma = test system: LOX IMVI melanoma
LXFL 529 NSCLC = test system: LXFL 529 NSCLC
M14 melanoma = test system: M14 melanoma
M19-MEL melanoma = test system: M19-MEL melanoma
MALME-3M melanoma = test system: MALME-3M melanoma
MOLT-4 leukemia = test system: MOLT-4 leukemia
NCI-H23 lung = test system: NCI-H23 lung
NCI-H522 lung = test system: NCI-H522 lung
OVCAR-3 ovarian = test system: OVCAR-3 ovarian
OVCAR-4 ovarian = test system: OVCAR-4 ovarian
OVCAR-5 ovarian = test system: OVCAR-5 ovarian
OVCAR-8 ovarian = test system: OVCAR-8 ovarian
RPMI-8226 leukemia = test system: RPMI-8226 leukemia
RXF 393 renal = test system: RXF 393 renal
RXF-631 renal = test system: RXF-631 renal
SF-268 CNS = test system: SF-268 CNS
SF-539 CNS = test system: SF-539 CNS
SK-MEL-2 melanoma = test system: SK-MEL-2 melanoma
SK-MEL-28 melanoma = test system: SK-MEL-28 melanoma
SK-MEL-5 melanoma = test system: SK-MEL-5 melanoma
SK-OV-3 ovarian = test system: SK-OV-3 ovarian
SN12C renal = test system: SN12C renal
SNB-19 CNS = test system: SNB-19 CNS
SNB-75 CNS = test system: SNB-75 CNS
SNB-78 CNS = test system: SNB-78 CNS
SW-620 colon = test system: SW-620 colon
TK-10 renal = test system: TK-10 renal
U251 CNS = test system: U251 CNS
UACC-257 melanoma = test system: UACC-257 melanoma
UACC-62 melanoma = test system: UACC-62 melanoma
UO-31 renal = test system: UO-31 renal
XF 498 CNS = test system: XF 498 CNS
DLD-1 colon = test system: DLD-1 colon
HCC-2998 colon = test system: HCC-2998 colon
HL-60(TB) leukemia = test system: HL-60(TB) leukemia
HOP-62 NSCLC = test system: HOP-62 NSCLC
NCI-H226 lung = test system: NCI-H226 lung
NCI-H460 lung = test system: NCI-H460 lung
SF-295 CNS = test system: SF-295 CNS

CC1=N/C(=C/c2ccc3c(c2)OCO3)C(=O)O1
TGI (786-0 renal): > 100 µM | TGI (A498 renal): > 100 µM | TGI (A549 NSCLC): > 100 µM | TGI (ACHN renal): > 100 µM | TGI (CAKI-1 renal): > 100 µM | TGI (CCRF-CEM leukemia): > 100 µM | TGI (COLO 205 colon): > 100 µM | TGI (DMS 114 small cell lung): > 100 µM | TGI (DMS 273 small cell lung): > 100 µM | TGI (EKVX NSCLC): > 100 µM | TGI (HCT-116 colon): > 100 µM | TGI (HCT-15 colon): > 100 µM | TGI (HOP-18 NSCLC): > 100 µM | TGI (HOP-92 NSCLC): > 100 µM | TGI (HT29 colon): > 100 µM | TGI (IGROV1 ovarian): > 100 µM | TGI (K-562 leukemia): > 100 µM | TGI (KM12 colon): > 100 µM | TGI (KM20L2 colon): > 100 µM | TGI (LOX IMVI melanoma): > 100 µM | TGI (LXFL 529 NSCLC): > 100 µM | TGI (M14 melanoma): > 100 µM | TGI (M19-MEL melanoma): > 100 µM | TGI (MALME-3M melanoma): > 100 µM | TGI (MOLT-4 leukemia): > 100 µM | TGI (NCI-H23 lung): > 100 µM | TGI (NCI-H522 lung): > 100 µM | TGI (OVCAR-3 ovarian): > 100 µM | TGI (OVCAR-4 ovarian): > 100 µM | TGI (OVCAR-5 ovarian): > 100 µM | TGI (OVCAR-8 ovarian): > 100 µM | TGI (RPMI-8226 leukemia): > 100 µM | TGI (RXF 393 renal): > 100 µM | TGI (RXF-631 renal): > 100 µM | TGI (SF-268 CNS): > 100 µM | TGI (SF-539 CNS): > 100 µM | TGI (SK-MEL-2 melanoma): > 100 µM | TGI (SK-MEL-28 melanoma): > 100 µM | TGI (SK-MEL-5 melanoma): > 100 µM | TGI (SK-OV-3 ovarian): > 100 µM | TGI (SN12C renal): > 100 µM | TGI (SNB-19 CNS): > 100 µM | TGI (SNB-75 CNS): > 100 µM | TGI (SNB-78 CNS): > 100 µM | TGI (SW-620 colon): > 100 µM | TGI (TK-10 renal): > 100 µM | TGI (U251 CNS): > 100 µM | TGI (UACC-257 melanoma): > 100 µM | TGI (UACC-62 melanoma): > 100 µM | TGI (UO-31 renal): > 100 µM | TGI (XF 498 CNS): > 100 µM

CC(C)(C)C1=CC(=C(P(=O)(O)O)P(=O)(O)O)C=C(C(C)(C)C)C1=O
TGI (786-0 renal): > 50 µM | TGI (A498 renal): > 50 µM | TGI (A549 NSCLC): > 50 µM | TGI (ACHN renal): > 50 µM | TGI (CAKI-1 renal): > 50 µM | TGI (CCRF-CEM leukemia): > 50 µM | TGI (DLD-1 colon): > 50 µM | TGI (DMS 114 small cell lung): > 50 µM | TGI (DMS 273 small cell lung): > 50 µM | TGI (EKVX NSCLC): > 50 µM | TGI (HCC-2998 colon): > 50 µM | TGI (HCT-116 colon): > 50 µM | TGI (HCT-15 colon): > 50 µM | TGI (HL-60(TB) leukemia): > 50 µM | TGI (HOP-18 NSCLC): > 50 µM | TGI (HOP-62 NSCLC): > 50 µM | TGI (HOP-92 NSCLC): > 50 µM | TGI (HT29 colon): > 50 µM | TGI (IGROV1 ovarian): > 50 µM | TGI (K-562 leukemia): > 50 µM | TGI (KM12 colon): > 50 µM | TGI (KM20L2 colon): > 50 µM | TGI (LOX IMVI melanoma): > 50 µM | TGI (LXFL 529 NSCLC): > 50 µM | TGI (M14 melanoma): > 50 µM | TGI (M19-MEL melanoma): > 50 µM | TGI (MALME-3M melanoma): > 50 µM | TGI (MOLT-4 leukemia): > 50 µM | TGI (NCI-H226 lung): > 50 µM | TGI (NCI-H23 lung): > 50 µM | TGI (NCI-H460 lung): > 50 µM | TGI (NCI-H522 lung): > 50 µM | TGI (OVCAR-3 ovarian): > 50 µM | TGI (OVCAR-4 ovarian): > 50 µM | TGI (OVCAR-5 ovarian): > 50 µM | TGI (OVCAR-8 ovarian): > 50 µM | TGI (RPMI-8226 leukemia): > 50 µM | TGI (RXF-631 renal): > 50 µM | TGI (SF-268 CNS): > 50 µM | TGI (SF-295 CNS): > 50 µM | TGI (SF-539 CNS): > 50 µM | TGI (SK-MEL-2 melanoma): > 50 µM | TGI (SK-MEL-28 melanoma): > 50 µM | TGI (SK-MEL-5 melanoma): > 50 µM | TGI (SK-OV-3 ovarian): > 50 µM | TGI (SNB-19 CNS): > 50 µM | TGI (SNB-75 CNS): > 50 µM | TGI (SNB-78 CNS): > 50 µM | TGI (SW-620 colon): > 50 µM | TGI (TK-10 renal): > 50 µM | TGI (UACC-257 melanoma): > 50 µM | TGI (UACC-62 melanoma): > 50 µM | TGI (UO-31 renal): > 50 µM
